In patent US6914064B2, “1,4-Disubstituted piperazine derivatives useful as uro-selective α1-adrenoceptor blockers” (Ranbaxy Laboratories Limited, priority 2000, dated 2005):

How the values were obtained:
α1D adrenoceptor (aorta) = target: T1, α1D adrenoceptor (aorta) (Rattus norvegicus, UniProt P23944); experiment: In vitro functional study, antagonism of norepinephrine-induced contraction of aorta; assay type: biochemical; conditions: tested compound at 0.1, 1 and 10 mM, read-out: α Adrenoceptor Subtype (pKB) α1D (converted)
T1 construct: Isolated tissues were mounted in organ bath containing Krebs Henseleit buffer; from tissue; host or cells: isolated aorta of male wistar rats
T1 sequence (P23944 1-561): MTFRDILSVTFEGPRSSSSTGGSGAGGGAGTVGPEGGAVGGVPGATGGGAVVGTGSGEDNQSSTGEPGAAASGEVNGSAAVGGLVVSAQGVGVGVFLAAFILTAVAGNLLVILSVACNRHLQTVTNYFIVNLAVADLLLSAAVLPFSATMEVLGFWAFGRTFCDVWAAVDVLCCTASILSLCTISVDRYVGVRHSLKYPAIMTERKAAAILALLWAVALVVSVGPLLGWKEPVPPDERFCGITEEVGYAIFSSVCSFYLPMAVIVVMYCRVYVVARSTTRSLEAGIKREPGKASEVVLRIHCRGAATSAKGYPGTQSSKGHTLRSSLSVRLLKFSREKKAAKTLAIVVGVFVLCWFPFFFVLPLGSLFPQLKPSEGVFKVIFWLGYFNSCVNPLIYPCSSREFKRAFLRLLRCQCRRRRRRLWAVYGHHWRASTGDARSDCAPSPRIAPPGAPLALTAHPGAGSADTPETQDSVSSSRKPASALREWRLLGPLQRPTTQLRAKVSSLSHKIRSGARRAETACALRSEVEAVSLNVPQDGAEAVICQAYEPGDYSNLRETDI
Source text: (§1) In order to study selectivity of action of these compounds towards different α-adrenoceptor subtypes, the ability of these compounds to antagonise α1-adrenoceptor agonist induced contractile response on aorta (α1Dprostate (α1A and spleen (α1B was studied. Aorta and spleen tissues were isolated from urethane anaesthetised (1.5 gm/kg) male wistar rats. Isolated tissues were mounted in organ bath containing Krebs Henseleit buffer of following composition (mM): NaCl 118; KCl 4.7; CaCl2 2.5; MgSO4. 7H2O 1.2; NaHCO3 25; KH2PO41.2; glucose 11.5. Buffer was maintained at 37° C. and aereated with a mixture of 95% O2 and 5% CO2. A resting tension of 2 g (aorta) or 1 g (spleen and prostate)was applied to tissues. Contractile response was monitored using a force displacement transducer and recorded on chart recorders. Tissues were allowed to equilibrate for 2 hours. At the end of equilibration period, concentration response curves to norepinephrine (aorta) and phenylepinephrine (spleen and prostate) were obtained in absence and presence of tested compound (at concentration of 0.1,1 and 10 mM). Antagonist affinity was calculated and expressed as pKB vales in Table II.

[1] = target: T2, α1A adrenoceptor (prostate) (Rattus norvegicus, UniProt P43140); experiment: In vitro functional study, antagonism of phenylepinephrine-induced contraction of prostate; assay type: biochemical; conditions: for Selectivity α1A/α1B / Selectivity α1A/α1D: functional assays, from pKB values; for Kb: prostate, phenylepinephrine, tested compound at 0.1, 1 and 10 mM, read-out: α Adrenoceptor Subtype (pKB) α1A (converted)
T2 construct: from tissue; host or cells: isolated prostate tissue
T2 sequence (P43140 1-466): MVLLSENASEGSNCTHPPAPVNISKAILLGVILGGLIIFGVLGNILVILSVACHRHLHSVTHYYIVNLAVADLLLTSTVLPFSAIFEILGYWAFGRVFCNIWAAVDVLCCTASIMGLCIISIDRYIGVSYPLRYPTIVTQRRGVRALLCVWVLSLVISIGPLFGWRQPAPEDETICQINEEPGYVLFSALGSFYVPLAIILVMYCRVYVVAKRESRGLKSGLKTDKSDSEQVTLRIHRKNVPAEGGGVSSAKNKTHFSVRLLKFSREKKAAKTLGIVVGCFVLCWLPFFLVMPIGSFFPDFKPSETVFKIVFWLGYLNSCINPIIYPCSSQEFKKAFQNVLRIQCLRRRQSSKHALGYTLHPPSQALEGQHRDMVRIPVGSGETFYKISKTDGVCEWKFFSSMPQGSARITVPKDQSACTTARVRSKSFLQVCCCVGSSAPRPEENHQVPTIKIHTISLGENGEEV
Source text: as §1

α1A adrenoceptor = target: T3, α1A adrenoceptor (Rattus norvegicus, UniProt P43140); experiment: Receptor binding assay, displacement of [3H]prazosin, rat submaxillary membranes; conditions: for Ki: [3H]prazosin displacement, rat submaxillary membranes, read-out: α1A (Rat submaxillary) Ki; for Selectivity α1B/α1A: ratio of Ki α1B (rat liver) / α1A (rat submaxillary)
T3 construct: from tissue; host or cells: rat submaxillary gland membranes
T3 sequence (P43140 1-466): T2 sequence (P43140 1-466)
How it was run: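 Rat submaxillary gland membranes (150-250 μg protein) incubated 1 h at 24-25° C in Tris HCl 50 mM, EDTA 5 mM, pH 7.4. Non-specific binding set with 300 nM prazosin; filtration then counting of bound radioactivity. IC50 and Kd from non-linear curve fitting.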

Kb (α1D adrenoceptor (aorta)) | Selectivity α1A/α1B [1] | Selectivity α1A/α1D [1] | Kb [1] | Ki (α1A adrenoceptor) | Selectivity α1B/α1A (α1A adrenoceptor) | Structure (SMILES)
2.29 nM | 41 | 4 | 0.537 nM | 0.8 nM | 91 | COc1ccccc1N1CCN(CCCN2C(=O)C3CC=CCC3C2=O)CC1.Cl (stereo not drawn) [Compound 01, 2-[3-{4-(2-Methoxyphenyl)piperazin-1-yl}propyl]-3a,4,7,7a-tetrahydro-1H-isoindole-1,3(2H)-dione hydrochloride]
1.74 nM | 47 | 15 | 0.112 nM | 0.13 nM | 146 | CCOc1ccccc1N1CCN(CCCN2C(=O)C3CC=CCC3C2=O)CC1.Cl (stereo not drawn) [Compound 11, 2-[3-{4-(2-Ethoxyphenyl)piperazin-1-yl}propyl]-3a,4,7,7a-tetrahydro-1H-isoindole-1,3(2H)-dione hydrochloride]
0.123 nM | 170 | 1 | 0.115 nM | 0.16 nM | 175 | CC(C)Oc1ccccc1N1CCN(CCCN2C(=O)C3CC=CCC3C2=O)CC1.Cl (stereo not drawn) [Compound 23, 2-[3-{4-(2-Isopropoxyphenyl)piperazin-1-yl}propyl]-3a,4,7,7a-tetrahydro-1H-isoindole-1,3(2H)-dione hydrochloride]
0.537 nM | 355 | 13 | 0.0398 nM | 0.24 nM | 117 | CCCOc1ccccc1N1CCN(CCCN2C(=O)C3CC=CCC3C2=O)CC1.Cl (stereo not drawn) [Compound 24, 2-[3-{4-(2-Propoxyphenyl)piperazin-1-yl}propyl]-3a,4,7,7a-tetrahydro-1H-isoindole-1,3(2H)-dione hydrochloride]
